{
  "source": "patent US20230321089A1",
  "about": "“COMBINATION OF CABOTEGRAVIR AND LEVONORGESTREL” (ViiV Healthcare Company, priority 2020, published 2023)",
  "key": {"HIV-1 strains": {"tested_on": "HIV-1 strains", "conditions": "broad range of HIV-1 strains; cited from earlier work"}, "[1]": {"set-up": "species or system male Sprague Dawley rats", "conditions": "rat, in vivo", "method": "To prepare the combination product, LNG and LNG-b suspensions were added to Cabotegravir suspensions at 500 mg/mL to achieve a final Cabotegravir concentration of approximately 200 mg/mL and a final LNG and LNGb concentration of […], using a solution of 2.0% Mannitol in water to adjust the final concentrations to target. Concentrations of P338 and PEG3350 were at 4.5%. The resulting suspensions were flushed with nitrogen, stoppered (FM457 stopper), and sealed. The suspensions were terminally sterilized by gamma irradiation at a minimum dose of 25 kGy.\nThe pharmacokinetics of co-suspensions of Cabotegravir and LNG/LNG-b, prepared as described above, were evaluated in male Sprague Dawley rats. The formulations that were tested included: • i. 200 mg/mL Cabotegravir and 40 mg/mL LNG—0.2 microns • ii. 200 mg/mL Cabotegravir 40 mg/mL LNG—1 micron • iii. 200 mg/mL Cabotegravir and 40 mg/mL LNGb—0.2 microns • iv. 200 mg/mL Cabotegravir 40 mg/mL LNGb—1 micron\nRats were administered co-suspensions either intramuscularly or subcutaneously at target doses of 10 mg/kg Cabotegravir and […] LNG or LNGb. […] FIG. 2 is a comparison of Levonorgestrel blood concentration pharmacokinetic profiles after intramuscular vs. subcutaneous administration. The average particle size of LNG for these formulations was 0.2 microns in diameter. […] Furthermore, FIG. 3 is a comparison of LNG and LNG-b co-formulated with Cab."}},
  "data": [
    {"smiles": "C[C@H]1CO[C@@H]2Cn3cc(C(=O)NCc4ccc(F)cc4F)c(=O)c(O)c3C(=O)N12", "note": "[Cabotegravir, N-((2,4-Difluorophenyl)methyl)-6-hydroxy-3-methyl-5,7-dioxo-2,3,5,7,11,11a hexahydro(1,3)oxazolo(3,2-a)pyrido(1,2-d)pyrazine-8-carboxamide]", "values": [
      {"measurement": "potency", "setting": "HIV-1 strains", "result": "subnanomolar"}
    ]},
    {"smiles": "C#C[C@]1(OC(=O)CCC)CC[C@H]2[C@@H]3CCC4=CC(=O)CC[C@@H]4[C@H]3CC[C@@]21CC", "note": "[LNGb, Levonorgestrel-butanoate]", "values": [
      {"measurement": "Cmax compared with LNG", "setting": "[1]; sc", "result": "lower"},
      {"measurement": "apparent half-life compared with LNG", "setting": "[1]; sc", "result": "slightly longer"}
    ]},
    {"smiles": "C#C[C@]1(O)CC[C@H]2[C@@H]3CCC4=CC(=O)CC[C@@H]4[C@H]3CC[C@@]21CC", "note": "[LNG, Levonorgestrel]", "values": [
      {"measurement": "Levonorgestrel blood concentration pharmacokinetic profile: intramuscular vs. subcutaneous administration", "setting": "[1]", "result": "does not appear to be a significant impact"}
    ]}
  ]
}
